The values that follow come from PMC12503909, “C1′‐Branched Acyclic Nucleoside Phosphonates as Inhibitors of Plasmodium Falciparum 6‐Oxopurine Phosphoribosyltransferase” (Chemmedchem, 2025).

The subject of one data set is P. falciparum W2. In words: In vitro antimalarial activity, 3H-hypoxanthine growth inhibition assay, W2 line. The data set is classed as cell-based, Plasmodium falciparum. To be noted: 96 h, Pf infected erythrocytes, W2 strain resistant to chloroquine, mean ± SD of three independent experiments. The protocol: (§1) The IC50 values were determined as previously described.^[ [32] ^] P. falciparum D6 (Sierra‐Leone) laboratory line, sensitive to most antimalarial drugs, and W2 (Indochina) line, resistant to chloroquine and pyrimethamine, were maintained as previously described^[ [33] ^] in medium consisted of 10.4 g L^−1 RPMI‐1640‐LPLF powder (Gibco BRL), 5.97 g L^−1 HEPES buffer (MP Biomedicals, USA), 2.0 g L^−1 d‐glucose (BDH chemicals, Australia), 0.05 g L^−1 hypoxanthine (Sigma, USA) and 40 mg L^−1 gentamycin (Pfizer, Australia), supplemented with 0.21% NaHCO3 and 10% human plasma prior to use. Red blood cells O (Rh+) type were obtained from the Australian Red Cross Blood Service and added to 4% haematocrit. Cultures were routinely synchronized using D‐sorbitol.^[ [34] ^] To evaluate the antimalarial activity of the ANPs, the ^3H‐hypoxanthine growth inhibition assay was utilized, where the uptake of ^3H‐hypoxanthine by malaria parasites is used as a surrogate marker for parasite growth. For these assays, stock solutions of the tested compounds were made to concentrations of 20–40 mM in DMSO or water and subsequently diluted in hypoxanthine‐free complete media prior to assay. The assays (in 96‐well plate format) were initiated when most parasites (> 90%) were at the early trophozoite (ring) stage. Parasite cultures (100 μL per well) at 0.5% initial parasitemia and 2% hematocrit in hypoxanthine‐free RPMI1640‐LPLF medium were exposed to ten twofold serial dilutions of the compounds and chloroquine (reference drug) for 96 h, with ^3H‐hypoxanthine (0.2 μCi well^−1) added ≈48 h after the beginning of the experiment.
(§2) The ^3H‐hypoxanthine incorporation data were analyzed, and sigmoidal growth inhibition curves were produced by nonlinear regression analysis of the ^3H‐hypoxanthine incorporation data versus log‐transformed concentrations of the compounds using Graphpad Prism V5.0 software (GraphPad Software Inc. USA). […] The IC50 values were based on three independent experiments, with mean ± SD calculated.

The subject of another data set is P. falciparum D6. In words: In vitro antimalarial activity, 3H-hypoxanthine growth inhibition assay, D6 line. It is filed as cell-based, Plasmodium falciparum. To be noted: 96 h, Pf infected erythrocytes, D6 strain sensitive to chloroquine, mean ± SD of three independent experiments. The protocol:
as §1, §2

The next data set concerns HL-60. In words: Cytotoxicity of the prodrug in human cells (CellTiter-Glo 2.0), HL-60. The data set is classed as cell-based. To be noted: 10 µM, versus untreated control; mean ± SD. As to the method: (§3) Compound cytotoxicity was evaluated in nontumor human dermal fibroblasts (NHDF), CCRF‐CEM, HL‐60, HeLa, and HepG2 cells. All cell lines were obtained from ATCC (Manassas, VA, USA). The cytotoxicity was assayed using CellTiter‐Glo 2.0 detection reagent (Promega, Madison, USA) according to the manufacturer's protocol. The concentration of prodrug used in this assay was 10 μM. This concentration was chosen as it would more accurately reflect the expected concentration in an in vitro assessment.

For another data set, the system named is HepG2. In words: Cytotoxicity of the prodrug in human cells (CellTiter-Glo 2.0), HepG2. The data set is classed as cell-based. Particulars: 10 µM, versus untreated control; mean ± SD. As to the method: as §3
Another data set deals with NHDF. In words: Cytotoxicity of the prodrug in human cells (CellTiter-Glo 2.0), NHDF. Particulars: 10 µM, versus untreated control; mean ± SD. The data set is classed as cell-based. As to the method: as §3
The subject of the next data set is HeLa. Nature of the data set: Cytotoxicity of the prodrug in human cells (CellTiter-Glo 2.0), HeLa. The data set is classed as cell-based. Particulars: 10 µM, versus untreated control; mean ± SD. The protocol: as §3
A further data set relates to CCRF-CEM. Nature of the data set: Cytotoxicity of the prodrug in human cells (CellTiter-Glo 2.0), CCRF-CEM. The data set is classed as cell-based. Particulars: 10 µM, versus untreated control; mean ± SD. The protocol:
as §3

In another data set the target is T1, PfHGXPRT (Plasmodium falciparum, UniProt P20035).
T1 construct: made in house
T1 sequence (P20035 1-231): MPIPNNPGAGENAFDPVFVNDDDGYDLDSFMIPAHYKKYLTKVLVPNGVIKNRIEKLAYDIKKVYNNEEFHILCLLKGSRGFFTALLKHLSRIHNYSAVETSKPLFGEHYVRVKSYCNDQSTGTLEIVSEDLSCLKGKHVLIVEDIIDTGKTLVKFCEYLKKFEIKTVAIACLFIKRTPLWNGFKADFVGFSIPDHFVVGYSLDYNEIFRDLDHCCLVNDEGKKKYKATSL
In words: Determination of Ki values, PfHGXPRT. To be noted: 0.1 M Tris-HCl, 10 mM MgCl2, pH 7.4; guanine 60 μM, variable PRib-PP; mean ± SD of three independent experiments. It is filed as biochemical. As to the method: (§4) The human and Pf enzymes were purified as described previously.^[ [7] ^, [26] ^] All assays were performed in 0.1 M Tris‐HCl, 10 mM MgCl2, pH 7.4. […] The K i was calculated using the equation, v o = Vmax.[S]o/[S]o + K m(app) and K m(app) = K m [1 + [I]/K i ].

A further data set deals with T2, human HGPRT (Homo sapiens, UniProt P00492).
T2 construct: made in house
T2 sequence (P00492 1-218): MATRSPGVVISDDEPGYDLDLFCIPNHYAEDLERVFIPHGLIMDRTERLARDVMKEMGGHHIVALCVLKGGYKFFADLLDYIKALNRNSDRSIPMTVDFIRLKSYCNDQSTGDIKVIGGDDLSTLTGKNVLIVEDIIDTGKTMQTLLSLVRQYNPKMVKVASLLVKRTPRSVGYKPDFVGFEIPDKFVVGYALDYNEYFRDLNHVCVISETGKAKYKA
In words: Determination of Ki values, human HGPRT. The data set is classed as biochemical. To be noted: 0.1 M Tris-HCl, 10 mM MgCl2, pH 7.4; guanine 60 μM, variable PRib-PP; mean ± SD of three independent experiments. As to the method:
as §4

Where [1] appears, read: Plasmodium falciparum, W2, Erythrocyte.
Setting [2] is: Plasmodium falciparum, D6, Erythrocyte.

Counter-ions that a name gives are not always drawn. A value given as a limit tells only on which side of the number the result lay.

As to `CCOC(=O)[C@H](Cc1ccccc1)NP(=O)(CCOCC(OCCOCP(=O)(N[C@@H](Cc1ccccc1)C(=O)OCC)N[C@@H](Cc1ccccc1)C(=O)OCC)n1cnc2c(=O)[nH]c(N)nc21)N[C@@H](Cc1ccccc1)C(=O)OCC` (mixture of isomers) [19b, Tetra‐(L‐phenylalaninate ethyl ester) prodrug of (2‐(2‐(guanin‐9‐yl)‐2‐(2‐(phosphonatomethoxy)ethoxy)ethoxy)ethyl)phosphonic acid], the results for the IC50 with P. falciparum W2 (setting [1]) and in the data set on P. falciparum D6 (setting [2]) were 8.8 ± 2.6 µM and 4.3 ± 0.7 µM, respectively.

As for `CCOC(=O)[C@H](Cc1ccccc1)NP(=O)(COCC(OCCO)n1cnc2c(=O)[nH]c(N)nc21)N[C@@H](Cc1ccccc1)C(=O)OCC` (mixture of isomers) [21b, Bis‐(L‐phenylalaninate ethyl ester) prodrug of ((2‐(guanin‐9‐yl)‐2‐(2‐hydroxyethoxy)ethoxy)methyl)phosphonic acid], the “Viability HL-60” value in the data set on HL-60 is given as 100 ± 2 % control. In the data set with HepG2, the “Viability HepG2” value was found to be 93 ± 4 % control. The “Viability NHDF” value with NHDF is 94 ± 8 % control. Besides, the IC50 in the data set with P. falciparum W2 (setting [1]) amounted to 79 ± 8 µM; in the data set on P. falciparum D6 (setting [2]), 84 ± 10 µM. The “Viability HeLa” value in the data set with HeLa was 91 ± 2 % control. Besides, the “Viability CCRF-CEM” value with CCRF-CEM is listed as 97 ± 1 % control.

Consider `O=c1[nH]cnc2c1ncn2C(COCCP(=O)(O)O)OCCOCP(=O)(O)O` (stereo not drawn) [18a, Sodium salt of (2‐(2‐(hypoxanthin‐9‐yl)‐2‐(2‐(phosphonatomethoxy)ethoxy)ethoxy)ethyl)phosphonic acid], for which the results for the Ki on PfHGXPRT and on human HGPRT were 5 ± 1 µM and greater than 60 µM, respectively.

On to `Nc1nc2c(ncn2C(COCCP(=O)(O)O)OCCOCP(=O)(O)O)c(=O)[nH]1` (stereo not drawn) [18b, Sodium salt of (2‐(2‐(guanin‐9‐yl)‐2‐(2‐(phosphonatomethoxy)ethoxy)ethoxy)ethyl)phosphonic acid], for which the Ki on PfHGXPRT amounted to 1 ± 0.2 µM; on human HGPRT it was 0.7 ± 0.4 µM.

On to `CCOC(=O)[C@H](Cc1ccccc1)NP(=O)(CCOCC(OCCOCP(=O)(N[C@@H](Cc1ccccc1)C(=O)OCC)N[C@@H](Cc1ccccc1)C(=O)OCC)n1cnc2c(=O)[nH]cnc21)N[C@@H](Cc1ccccc1)C(=O)OCC` (stereo partly drawn) [19a, Tetra‐(L‐phenylalaninate ethyl ester) prodrug of (2‐(2‐(hypoxanthin‐9‐yl)‐2‐(2‐(phosphonatomethoxy)ethoxy)ethoxy)ethyl)phosphonic acid], for which the “Viability HL-60” value with HL-60 came out at 112 ± 1 % control. Also, the “Viability HepG2” value with HepG2 came out at 116 ± 1 % control. Also, the “Viability NHDF” value in the data set on NHDF is recorded as 114 ± 5 % control. Besides, the IC50 came to 3.4 ± 1.1 µM in the data set with P. falciparum W2, 3 µM with P. falciparum W2 (setting [1]), 2.1 ± 0.2 µM in the data set on P. falciparum D6 and 2 µM with P. falciparum D6 (setting [2]). In addition, the “Viability HeLa” value in the data set with HeLa was determined as 105 ± 1 % control. For the same molecule, in the data set with CCRF-CEM, the “Viability CCRF-CEM” value amounted to 106 ± 1 % control.

On human HGPRT, `O=c1[nH]cnc2c1ncn2C(COCP(=O)(O)O)OCCO` (stereo not drawn) [20a, Sodium salt of ((2‐(2‐hydroxyethoxy)‐2‐(hypoxanthin‐9‐yl)ethoxy)methyl) phosphonic acid] displayed a Ki of 160 µM.

For `Nc1nc2c(ncn2C(COCP(=O)(O)O)OCCO)c(=O)[nH]1` (stereo not drawn) [20b, Sodium salt of ((2‐(guanin‐9‐yl)‐2‐(2‐hydroxyethoxy)ethoxy)methyl)phosphonic acid], the Ki at PfHGXPRT came out at 5 ± 1 µM; at human HGPRT it was 30 ± 5 µM.

`O=c1[nH]cnc2c1ncn2C(COCCP(=O)(O)O)OCCO` (stereo not drawn) [20c, Sodium salt of (2‐(2‐(2‐hydroxyethoxy)‐2‐(hypoxanthin‐9‐yl)ethoxy)ethyl)phosphonic acid]: the Ki is 10 ± 5 µM on PfHGXPRT and greater than 20 µM on human HGPRT.

With `Nc1nc2c(ncn2C(COCCP(=O)(O)O)OCCO)c(=O)[nH]1` (stereo not drawn) [20d, Sodium salt of (2‐(2‐(2‐hydroxyethoxy)‐2‐(guanin‐9‐yl)ethoxy)ethyl)phosphonic acid], the results for the Ki at PfHGXPRT and on human HGPRT were 0.4 ± 0.1 µM and 2.5 ± 0.4 µM, respectively.

On to `O=c1[nH]c(Cl)nc2c1ncn2C(COCCP(=O)(O)O)OCCO` (stereo not drawn) [20e, Sodium salt of (2‐(2‐(2‐chlorohypoxanthin‐9‐yl)‐2‐(2‐hydroxyethoxy)ethoxy)ethyl)phosphonic acid], for which the figures for the Ki on PfHGXPRT and on human HGPRT were 50 ± 10 µM and greater than 60 µM, respectively.

With `O=c1[nH]cnc2c1cnn2C(COCCP(=O)(O)O)OCCO` (stereo not drawn) [20f, Sodium salt of (2‐(2‐(2‐hydroxyethoxy)‐2‐(4‐oxo‐4,5‐dihydro‐1H‐pyrazolo[3,4‐d]pyrimidin‐1‐yl)ethoxy)ethyl)phosphonic acid], the Ki at PfHGXPRT and on human HGPRT was greater than 60 µM in each case.

`O=c1[nH]cnc2c1ncn2C(CCOCP(=O)(O)O)OCCCO` (stereo not drawn) [20g, Sodium salt of ((3‐(3‐hydroxypropoxy)‐3‐(hypoxanthin‐9‐yl)propoxy)methyl)phosphonic acid]: the Ki at PfHGXPRT and on human HGPRT was greater than 60 µM throughout.

As for `Nc1nc2c(ncn2C(CCOCP(=O)(O)O)OCCCO)c(=O)[nH]1` (stereo not drawn) [20h, Sodium salt of ((3‐(guanin‐9‐yl)‐3‐(3‐hydroxypropoxy)propoxy)methyl)phosphonic acid], the Ki is greater than 60 µM on PfHGXPRT and 10 ± 3 µM at human HGPRT.

Consider `O=c1[nH]cnc2c1cnn2C(CCOCP(=O)(O)O)OCCCO` (stereo not drawn) [20i, Sodium salt of ((3‐(3‐hydroxypropoxy)‐3‐(4‐oxo‐4,5‐dihydro‐1H‐pyrazolo[3,4‐d]pyrimidin‐1‐yl)propoxy)methyl)phosphonic acid], for which the Ki at PfHGXPRT and at human HGPRT was greater than 60 µM in each case.

Regarding `CCOC(=O)[C@H](Cc1ccccc1)NP(=O)(COCC(OCCO)n1cnc2c(=O)[nH]cnc21)N[C@@H](Cc1ccccc1)C(=O)OCC` (stereo partly drawn) [21a, Bis‐(L‐phenylalaninate ethyl ester) prodrug of ((2‐(2‐hydroxyethoxy)‐2‐(hypoxanthin‐9‐yl)ethoxy)methyl)phosphonic acid], the “Viability HL-60” value with HL-60 is recorded as 103 ± 0 % control. Moreover, the “Viability HepG2” value in the data set with HepG2 is recorded as 98 ± 3 % control. For the same molecule, the “Viability NHDF” value in the data set with NHDF worked out at 104 ± 8 % control. In addition, the IC50 was 71 ± 1 µM with P. falciparum W2 (setting [1]) and 34 ± 6 µM in the data set with P. falciparum D6 (setting [2]). For the same molecule, the “Viability HeLa” value in the data set on HeLa is given as 97 ± 2 % control. Besides, the “Viability CCRF-CEM” value with CCRF-CEM is reported as 101 ± 2 % control.

Consider `CCOC(COCCP(=O)(O)O)n1cnc2c(=O)[nH]c(N)nc21` (stereo not drawn) [compound 25, Sodium salt of (2‐(2‐(guanin‐9‐yl)‐2‐ethoxyethoxy)ethyl)phosphonic acid], for which the figures for the Ki on PfHGXPRT and at human HGPRT were 3 ± 0.5 µM and 3.7 ± 0.9 µM, respectively.
